# Test results reported in patent US6348478B1, “Biphenylamidine derivatives” (Teijin Limited, priority 1997, dated 2002).
# Values joined by “and” are separate entries in the source; they are usually repeats but may differ in a detail not shown here. Equal values may be shown once.
# Key:
# human FXa = human FXa (Homo sapiens, UniProt P00742); test: Measurement of activated blood coagulation factor X (FXa)-inhibiting action; type: biochemical; details: substrate S-2765, 30 minutes incubation, A405, read-out: FXa inhibition activity (IC50)
# Protocol: Measurement of activated blood coagulation factor X (FXa)-inhibiting action
# (§1) A specimen was dissolved in water or in water containing an organic solvent (DSMO, ethanol or methanol) in a proper concentration to prepare a specimen. 70 μl of the specimen stepwisely diluted with water was mixed with 90 μl of a 100 mM Tris buffer solution (pH 8.4), 20 μl of a 50 mM Tris buffer solution (pH 8.4) of 50 mU/ml human FXa, and a 2 mM substrate (Daiichikagaku. S-2765), incubated for 30 minutes, mixed with 50 μl of 50% acetic acid, and then subjected to the measurement of absorbance (A405). A blank was prepared by adding the Tris buffer solution instead of the FXa, and a control was prepared by adding water instead of the specimen. A 50% inhibition activity (IC50) was determined, and used as the index of the FXa-inhibiting action.
# human thrombin = molecular target: T1, human thrombin (Homo sapiens, UniProt P00734); test: Measurement of thrombin inhibition action; type: biochemical; details: substrate S-2238, 30 minutes incubation, A405
# T1 construct: 1U/ml human thrombin
# Protocol: Measurement of thrombin inhibition action
# as §1, with “70” for “A specimen was dissolved in water or in water containing an organic solvent (DSMO, ethanol or methanol) in a proper concentration to prepare a specimen. 70”, “1U/ml” for “50 mU/ml”, “thrombin,” for “FXa,”, “S-2238),” for “S-2765),”, “thrombin inhibition” for “FXa-inhibiting”
# Chain of human FXa (P00742 235-488 limits assumed): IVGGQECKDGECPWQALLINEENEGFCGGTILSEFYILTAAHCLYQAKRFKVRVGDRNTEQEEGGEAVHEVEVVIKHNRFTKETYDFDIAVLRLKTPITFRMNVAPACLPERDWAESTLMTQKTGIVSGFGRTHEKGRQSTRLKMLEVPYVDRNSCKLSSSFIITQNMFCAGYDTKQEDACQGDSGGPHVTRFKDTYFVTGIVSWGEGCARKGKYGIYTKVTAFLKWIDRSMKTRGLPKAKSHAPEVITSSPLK
# Chain of human FXa (P00742 41-179 partner limits assumed): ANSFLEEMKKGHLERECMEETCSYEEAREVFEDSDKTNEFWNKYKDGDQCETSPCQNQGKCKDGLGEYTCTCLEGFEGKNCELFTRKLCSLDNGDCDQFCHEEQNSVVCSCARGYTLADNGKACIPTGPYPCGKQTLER
Structure (SMILES),IC50 (human FXa),IC50 (human thrombin) [µM]
COC(=O)c1cc(COc2cccc(N)c2)cc(-c2cccc(C(=N)N)c2)c1 [Example 13],,> 100
COC(=O)c1cc(COc2cccnc2N)cc(-c2cccc(C(=N)N)c2)c1 [Example 11],10 to 100 µM,> 100
COC(=O)c1cc(-c2cccc(C(=N)N)c2)ccc1COc1cccc(CN)c1 [Example 20],10 to 100 µM,> 100
CNc1ccc(OCc2cc(C(=O)OC)cc(-c3cccc(C(=N)N)c3)c2)cc1 [Example 16],,10 to 100
COC(=O)c1cc(COc2ccc(C)cc2N)cc(-c2cccc(C(=N)N)c2)c1 [Example 12],1 to 10 µM,> 100
COC(=O)c1cc(COc2cccc(CO)c2)cc(-c2cccc(C(=N)N)c2)c1 [Example 15],1 to 10 µM and 10 to 100 µM,
N=C(N)c1cccc(-c2cc(COc3cccc(CCN)c3)cc(C(=O)O)c2)c1 [Example 10],1 to 10 µM,> 100
CC(C)c1ccc(OCc2cc(C(=O)O)cc(-c3cccc(C(=N)N)c3)c2)cc1 [Example 4],1 to 10 µM,

# More lines, now with the values ahead:
IC50 (human FXa),IC50 (human thrombin) [µM],Structure (SMILES)
1 to 10 µM,> 100,COC(=O)c1cc(COc2cccc(CCN)c2)cc(-c2cccc(C(=N)N)c2)c1 [Example 9]
1 to 10 µM,,COC(=O)c1cc(COCc2ccccc2)cc(-c2cccc(C(=N)N)c2)c1 [Example 23]
1 to 10 µM,> 100,COC(=O)c1cc(COc2cccc(CN)c2)cc(-c2cccc(C(=N)N)c2)c1 [Example 5]
1 to 10 µM,> 100,N=C(N)c1cccc(-c2cc(COc3cccc(CN)c3)cc(C(=O)O)c2)c1 [Example 6]
1 to 10 µM,,COC(=O)c1cc(COc2ccc(C(C)C)cc2)cc(-c2cccc(C(=N)N)c2)c1 [Example 3]
0.1 to 1 µM,,COC(=O)c1cc(COc2ccc3c(c2)CNC3)cc(-c2cccc(C(=N)N)c2)c1 [Example 18]
0.1 to 1 µM,10 to 100,COC(=O)c1cc(COc2ccc3c(c2)CN(C(C)=N)C3)cc(-c2cccc(C(=N)N)c2)c1 [Example 19]
